Tested on: rgRSV224 virus
Assay: Antiviral activity: inhibition of rgRSV224 (GFP-expressing RSV) replication in HeLa cells, GFP expression read-out
Format: cell-based, respiratory syncytial virus (RSV)
Conditions: human respiratory syncytial virus, HeLa, read-out: RSV HELA pEC50, rgRSV224 virus (MOI=1) in HeLa cells, GFP read-out (converted)
Method: (§1) Black 384-well clear-bottom microtiter plates (Corning, Amsterdam, The Netherlands) were filled via acoustic drop ejection using the echo liquid handler (Labcyte, Sunnyvale, Calif.). 200 nL of compound stock solutions (100% DMSO) were transferred to the assay plates. 9 serial 4-fold dilutions of compound were made, creating per quadrant the same compound concentration. The assay was initiated by adding 10 μL of culture medium to each well (RPMI medium without phenol red, 10% FBS-heat inactivated, 0.04% gentamycin (50 mg/mL). All addition steps are done by using a multidrop dispenser (Thermo Scientific, Erembodegem, Belgium). Next, rgRSV224 virus (MOI=1) diluted in culture medium was added to the plates. rgRSV224 virus is an engineered virus that includes an additional GFP gene (Hallak LK, Spillmann D, Collins PL, Peeples Me. Glycosaminoglycan sulfation requirements for respiratory syncytial virus infection; Journal of virology (2000), 74(22), 10508-13) and was in-licensed from the NIH (Bethesda, Md., USA). Finally, 20 μL of a HeLa cell suspension (3,000 cells/well) were plated. Medium, virus- and mock-infected controls were included in each test. The wells contain 0.05% DMSO per volume. Cells were incubated at 37° C. in a 5% CO2 atmosphere. Three days post-virus exposure, viral replication was quantified by measuring GFP expression in the cells by an in house developed MSM laser microscope (Tibotec, Beerse, Belgium). The EC50 was defined as the 50% inhibitory concentration for GFP expression. In parallel, compounds were incubated for three days in a set of white 384-well microtiter plates (Corning) and the cytotoxicity of compounds in HeLa cells was determined by measuring the ATP content of the cells using the ATPlite kit (Perkin Elmer, Zaventem, Belgium) according to the manufacturer's instructions. The CC50 was defined as the 50% concentration for cytotoxicity.

Compound	EC50 [nM]
C[C@@H]1c2ccccc2CCN1C(=O)c1cc(C2CC2)n2nc(-c3ccc(C4C[C@H]4C(=O)O)cc3F)cc2n1 (single isomer, unassigned) [Compound O5]	11
C[C@@H]1CCCCCN1C(=O)c1cc(C2CC2)n2nc(-c3ccc(C4C[C@H]4C(=O)O)cc3F)cc2n1 (single isomer, unassigned) [Compound O7]	39.8
CC1c2ccsc2CCN1C(=O)c1cc(C2CC2)n2nc(-c3ccc(C4C[C@H]4C(=O)O)cc3F)cc2n1 (single isomer, unassigned) [Compound O20]	8.13
CCc1cc(C(=O)N2CCc3sccc3C2C)nc2cc(-c3ccc(C4C[C@H]4C(=O)O)cc3F)nn12 (single isomer, unassigned) [Compound O22]	6.92
CC1c2ccsc2CCN1C(=O)c1cc(C2CC2)n2nc(-c3ccc(N4CC[C@H](C(=O)O)C4)cc3F)cc2n1 (single isomer, unassigned) [Compound W37]	5.62
CCc1cc(C(=O)N2CCc3sccc3C2C)nc2cc(-c3ccc(N4CC[C@H](C(=O)O)C4)cc3F)nn12 (single isomer, unassigned) [Compound W43]	2.75
CCc1cc(C(=O)N2CCCCCC2C)nc2cc(-c3cccs3)nn12 (stereo not drawn) [Compound A1]	5010
CCc1cc(C(=O)N2CCCCCC2C)nc2cc(-c3ccccc3F)nn12 (stereo not drawn) [Compound A4]	1020
CCc1cc(C(=O)N2CCCCCC2C)nc2cc(-c3ccc(N(C)C)cc3F)nn12 (stereo not drawn) [Compound A6]	724
CCc1cc(C(=O)N2CCCCCC2C)nc2cc(-c3ccc4[nH]ccc4c3)nn12 (stereo not drawn) [Compound A7]	589
CCc1cc(C(=O)N2CCCCCC2C)nc2cc(-c3ccc4c(c3)CC(=O)N4)nn12 (stereo not drawn) [Compound A8]	646
CCc1cc(C(=O)N2CCCCCC2C)nc2cc(-c3ccc4c(c3)CC(=O)N4C)nn12 (stereo not drawn) [Compound A9]	537
CCc1cc(C(=O)N2CCCCCC2C)nc2cc(-c3ccc4c(c3)CCN4C)nn12 (stereo not drawn) [Compound A10]	2090
CCc1cc(C(=O)N2CCCCCC2C)nc2cc(-c3ccc4ncccc4c3)nn12 (stereo not drawn) [Compound A11]	646
CCc1cc(C(=O)N2CCCCCC2C)nc2cc(-c3ccc4nc(C)ccc4c3)nn12 (stereo not drawn) [Compound A12]	871
CCc1cc(C(=O)N2CCCCCC2C)nc2cc(-c3ccc4[nH]cnc4c3)nn12 (stereo not drawn) [Compound A13]	331
CCc1cc(C(=O)N2CCCCCC2C)nc2cc(-c3ccc4c(c3)ncn4C)nn12 (stereo not drawn) [Compound A14]	398
CCc1cc(C(=O)N2CCCCCCC2C)nc2cc(-c3ccccc3F)nn12 (stereo not drawn) [Compound A18]	355
CCc1cc(C(=O)N2CCCCCC2C)nc2cc(-c3ccc(CO)cc3)nn12 (stereo not drawn) [Compound A21]	891
CCc1cc(C(=O)N2CCCCCC2C)nc2cc(-c3cc4cccnc4cc3F)nn12 (stereo not drawn) [Compound A24]	302

Tested on: not listed separately
Assay: Cytotoxicity in HeLa cells, ATP content measured with the ATPlite kit
Format: cell-based
Conditions: human, TOX HELA pCC50
Method: as §1

Compound	CC50 at 3 days [nM]
C[C@@H]1c2ccccc2CCN1C(=O)c1cc(C2CC2)n2nc(-c3ccc(C4C[C@H]4C(=O)O)cc3F)cc2n1 (single isomer, unassigned) [Compound O5]	55000
C[C@@H]1CCCCCN1C(=O)c1cc(C2CC2)n2nc(-c3ccc(C4C[C@H]4C(=O)O)cc3F)cc2n1 (single isomer, unassigned) [Compound O7]	45700
CC1c2ccsc2CCN1C(=O)c1cc(C2CC2)n2nc(-c3ccc(C4C[C@H]4C(=O)O)cc3F)cc2n1 (single isomer, unassigned) [Compound O20]	52500
CCc1cc(C(=O)N2CCc3sccc3C2C)nc2cc(-c3ccc(C4C[C@H]4C(=O)O)cc3F)nn12 (single isomer, unassigned) [Compound O22]	47900
CC1c2ccsc2CCN1C(=O)c1cc(C2CC2)n2nc(-c3ccc(N4CC[C@H](C(=O)O)C4)cc3F)cc2n1 (single isomer, unassigned) [Compound W37]	45700
CCc1cc(C(=O)N2CCc3sccc3C2C)nc2cc(-c3ccc(N4CC[C@H](C(=O)O)C4)cc3F)nn12 (single isomer, unassigned) [Compound W43]	49000
CCc1cc(C(=O)N2CCCCCC2C)nc2cc(-c3cccs3)nn12 (stereo not drawn) [Compound A1]	> 50100
CCc1cc(C(=O)N2CCCCCC2C)nc2cc(-c3ccccc3F)nn12 (stereo not drawn) [Compound A4]	45700
CCc1cc(C(=O)N2CCCCCC2C)nc2cc(-c3ccc(N(C)C)cc3F)nn12 (stereo not drawn) [Compound A6]	57500
CCc1cc(C(=O)N2CCCCCC2C)nc2cc(-c3ccc4[nH]ccc4c3)nn12 (stereo not drawn) [Compound A7]	> 25100
CCc1cc(C(=O)N2CCCCCC2C)nc2cc(-c3ccc4c(c3)CC(=O)N4)nn12 (stereo not drawn) [Compound A8]	> 25100
CCc1cc(C(=O)N2CCCCCC2C)nc2cc(-c3ccc4c(c3)CC(=O)N4C)nn12 (stereo not drawn) [Compound A9]	> 25100
CCc1cc(C(=O)N2CCCCCC2C)nc2cc(-c3ccc4c(c3)CCN4C)nn12 (stereo not drawn) [Compound A10]	> 25100
CCc1cc(C(=O)N2CCCCCC2C)nc2cc(-c3ccc4ncccc4c3)nn12 (stereo not drawn) [Compound A11]	> 25100
CCc1cc(C(=O)N2CCCCCC2C)nc2cc(-c3ccc4nc(C)ccc4c3)nn12 (stereo not drawn) [Compound A12]	> 25100
CCc1cc(C(=O)N2CCCCCC2C)nc2cc(-c3ccc4[nH]cnc4c3)nn12 (stereo not drawn) [Compound A13]	> 25100
CCc1cc(C(=O)N2CCCCCC2C)nc2cc(-c3ccc4c(c3)ncn4C)nn12 (stereo not drawn) [Compound A14]	> 25100
CCc1cc(C(=O)N2CCCCCCC2C)nc2cc(-c3ccccc3F)nn12 (stereo not drawn) [Compound A18]	> 100000
CCc1cc(C(=O)N2CCCCCC2C)nc2cc(-c3ccc(CO)cc3)nn12 (stereo not drawn) [Compound A21]	> 100000
CCc1cc(C(=O)N2CCCCCC2C)nc2cc(-c3cc4cccnc4cc3F)nn12 (stereo not drawn) [Compound A24]	> 25100

Tested on: not given
Assay: not given
Conditions: not given

Compound	melting point [°C]
C[C@@H]1c2ccccc2CCN1C(=O)c1cc(C2CC2)n2nc(-c3ccc(C4C[C@H]4C(=O)O)cc3F)cc2n1 (single isomer, unassigned) [Compound O5]	222.18
C[C@@H]1CCCCCN1C(=O)c1cc(C2CC2)n2nc(-c3ccc(C4C[C@H]4C(=O)O)cc3F)cc2n1 (single isomer, unassigned) [Compound O7]	245.75
CC1c2ccsc2CCN1C(=O)c1cc(C2CC2)n2nc(-c3ccc(C4C[C@H]4C(=O)O)cc3F)cc2n1 (single isomer, unassigned) [Compound O20]	252.97
CCc1cc(C(=O)N2CCc3sccc3C2C)nc2cc(-c3ccc(C4C[C@H]4C(=O)O)cc3F)nn12 (single isomer, unassigned) [Compound O22]	228.98
CC1c2ccsc2CCN1C(=O)c1cc(C2CC2)n2nc(-c3ccc(N4CC[C@H](C(=O)O)C4)cc3F)cc2n1 (single isomer, unassigned) [Compound W37]	231.1
CCc1cc(C(=O)N2CCc3sccc3C2C)nc2cc(-c3ccc(N4CC[C@H](C(=O)O)C4)cc3F)nn12 (single isomer, unassigned) [Compound W43]	252.56
CCc1cc(C(=O)N2CCCCCC2C)nc2cc(-c3cccs3)nn12 (stereo not drawn) [Compound A1]	110 to 120
CCc1cc(C(=O)N2CCCCCC2C)nc2cc(-c3ccccc3F)nn12 (stereo not drawn) [Compound A4]	120 to 125
CCc1cc(C(=O)N2CCCCCC2C)nc2cc(-c3ccc(N(C)C)cc3F)nn12 (stereo not drawn) [Compound A6]	84
CCc1cc(C(=O)N2CCCCCC2C)nc2cc(-c3ccc4[nH]ccc4c3)nn12 (stereo not drawn) [Compound A7]	195 to 197
CCc1cc(C(=O)N2CCCCCC2C)nc2cc(-c3ccc4c(c3)CC(=O)N4)nn12 (stereo not drawn) [Compound A8]	230 to 235
CCc1cc(C(=O)N2CCCCCC2C)nc2cc(-c3ccc4c(c3)CC(=O)N4C)nn12 (stereo not drawn) [Compound A9]	225 to 230
CCc1cc(C(=O)N2CCCCCC2C)nc2cc(-c3ccc4c(c3)CCN4C)nn12 (stereo not drawn) [Compound A10]	155
CCc1cc(C(=O)N2CCCCCC2C)nc2cc(-c3ccc4ncccc4c3)nn12 (stereo not drawn) [Compound A11]	170 to 175
CCc1cc(C(=O)N2CCCCCC2C)nc2cc(-c3ccc4nc(C)ccc4c3)nn12 (stereo not drawn) [Compound A12]	195 to 200
CCc1cc(C(=O)N2CCCCCC2C)nc2cc(-c3ccc4[nH]cnc4c3)nn12 (stereo not drawn) [Compound A13]	145 to 150
CCc1cc(C(=O)N2CCCCCC2C)nc2cc(-c3ccc4c(c3)ncn4C)nn12 (stereo not drawn) [Compound A14]	115
CCc1cc(C(=O)N2CCCCCCC2C)nc2cc(-c3ccccc3F)nn12 (stereo not drawn) [Compound A18]	125 to 130
CCc1cc(C(=O)N2CCCCCC2C)nc2cc(-c3ccc(CO)cc3)nn12 (stereo not drawn) [Compound A21]	155 to 160
CCc1cc(C(=O)N2CCCCCC2C)nc2cc(-c3cc4cccnc4cc3F)nn12 (stereo not drawn) [Compound A24]	145 to 150

Source: patent publication US11084826B2, “RSV antiviral pyrazolo- and triazolo-pyrimidine compounds” (Janssen Sciences Ireland Unlimited Company, priority 2015, dated 2021)
